Test results from PubChem BioAssay (NCI).
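Tested at 5 concentrations; 48 h exposure; 96-well plates; endpoints linearly interpolated, else capped at highest concentration. At the GI50, growth is halved. TGI: total growth inhibition.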

Legend:
Test in all cases: NCI anticancer screen, dose series, 48 h
[1] = tested on: CCRF-CEM leukemia
[2] = tested on: EKVX NSCLC
[3] = tested on: KM12 colon
[4] = tested on: NCI-H226 lung
[5] = tested on: OVCAR-4 ovarian
[6] = tested on: SK-MEL-28 melanoma
[7] = tested on: SK-MEL-5 melanoma
[8] = tested on: U251 CNS
[9] = tested on: UO-31 renal
[10] = tested on: BT-549 breast

In the case of `O=C([O-])c1ccccc1Nc1ccccn1.O=C([O-])c1ccccc1Nc1ccccn1.[Ni+2]`, the GI50 [1] was > 100 µM, the TGI [1] was > 100 µM and the GI50 [2] was 31.8 µM. For the same molecule, the TGI [2] was > 100 µM, the GI50 [3] was > 100 µM and the TGI [3] was > 100 µM. The GI50 [4] was 33.9 µM, the TGI [4] was > 100 µM and the GI50 [5] was > 100 µM. The TGI [5] was > 100 µM, the GI50 [6] was 58.9 µM and the TGI [6] was > 100 µM. The GI50 [7] was 73.9 µM, the TGI [7] was > 100 µM and the GI50 [8] was > 100 µM. For the same molecule, the TGI [8] was > 100 µM, the GI50 [9] was 48.9 µM and the TGI [9] was > 100 µM.

For `CN1CCN(CCc2cccc(C(=O)c3cnn(-c4ccc(F)cc4)c3N)c2)CC1`, the GI50 [10] was > 25 µM, the TGI [10] was > 25 µM and the GI50 [1] was > 25 µM. For the same molecule, the TGI [1] was > 25 µM, the GI50 [3] was > 25 µM and the TGI [3] was > 25 µM. The GI50 [4] was > 25 µM, the TGI [4] was > 25 µM and the GI50 [5] was > 25 µM. The TGI [5] was > 25 µM, the GI50 [6] was > 25 µM and the TGI [6] was > 25 µM. The GI50 [7] was > 25 µM, the TGI [7] was > 25 µM and the GI50 [8] was > 25 µM. For the same molecule, the TGI [8] was > 25 µM, the GI50 [9] was > 25 µM and the TGI [9] was > 25 µM.

`C[C@H](Nc1ncnc2nc[nH]c12)c1cc2cccc(Cl)c2c(=O)n1-c1ccccc1` was tested, and the GI50 [10] was 1.57 µM, the TGI [10] was > 83.1 µM and the GI50 [1] was 3 µM. The TGI [1] was > 100 µM, the GI50 [3] was 27.1 µM and the TGI [3] was > 100 µM. For the same molecule, the GI50 [4] was > 77.4 µM, the TGI [4] was > 100 µM and the GI50 [5] was > 100 µM. For the same molecule, the TGI [5] was > 100 µM, the GI50 [6] was 11.8 µM and the TGI [6] was > 100 µM. For the same molecule, the GI50 [7] was 25.8 µM, the TGI [7] was > 100 µM and the GI50 [8] was 11.8 µM. For the same molecule, the TGI [8] was > 100 µM, the GI50 [9] was 1.67 µM and the TGI [9] was > 75.3 µM.

With `C[N+](C)(C)CC(=O)N/N=C(/Cc1nc2c3c(ccc2[nH]c1=O)C(=O)c1ccccc1C3=O)C(=O)Nc1ccc(Cl)c(Cl)c1` the TGI [1] was > 100 µM, the TGI [2] was > 100 µM and the TGI [3] was > 100 µM. The TGI [5] was > 100 µM, the TGI [6] was > 100 µM and the TGI [7] was > 100 µM. It also gave a TGI [9] of 47.2 µM.

In the case of `CCCc1[nH]nc(CCC(=O)N(Cc2ccccc2)Cc2ccccc2)c1CC`, the TGI [1] was > 100 µM, the TGI [2] was > 100 µM and the TGI [3] was > 100 µM. For the same molecule, the TGI [4] was > 100 µM, the TGI [5] was > 100 µM and the TGI [6] was > 100 µM. For the same molecule, the TGI [7] was > 100 µM and the TGI [9] was > 100 µM.

Work on `ClCCn1c(CCl)nc2ccc(Cl)cc21` yielded a GI50 [10] of 0.277 µM, a TGI [10] of 0.753 µM and a GI50 [1] of 0.28 µM. The TGI [1] was 1.65 µM, the GI50 [3] was 1.91 µM and the TGI [3] was 4.33 µM. The GI50 [4] was 0.193 µM, the TGI [4] was 0.442 µM and the GI50 [5] was 1.34 µM. For the same molecule, the TGI [5] was 4.71 µM, the GI50 [6] was 1.68 µM and the TGI [6] was 3.49 µM. For the same molecule, the GI50 [7] was 0.176 µM, the TGI [7] was 0.329 µM and the GI50 [8] was 1.16 µM. It also gave a TGI [8] of 2.7 µM, a GI50 [9] of 1.57 µM and a TGI [9] of 3.11 µM.

`Cc1cccc(NC(=O)CC(=O)N2N=C(N(CCC#N)c3ccc(Cl)cc3)CC2c2ccccc2)c1` (stereo not drawn) was tested, and the TGI [1] was > 100 µM, the TGI [3] was > 100 µM and the TGI [5] was > 100 µM. For the same molecule, the TGI [6] was > 100 µM, the TGI [7] was > 100 µM and the TGI [8] was > 100 µM. The TGI [9] was > 100 µM.

For `Cc1ccc(-c2c(N)[n+]([O-])c3ccccc3[n+]2[O-])cc1`, the TGI [1] was > 100 µM, the TGI [2] was 50.2 µM and the TGI [3] was 26.7 µM. The TGI [4] was 39.6 µM, the TGI [5] was 33.1 µM and the TGI [6] was 20 µM. For the same molecule, the TGI [7] was 24.4 µM, the TGI [8] was 27.8 µM and the TGI [9] was 29.7 µM.

Molecule `N#C/C(=C1\OC(=O)C(c2ccc(Br)cc2)=C1O)c1ccc(Br)cc1` has a TGI [1] of 51.1 µM, a TGI [2] of 31.6 µM and a TGI [3] of 28.5 µM. It also gave a TGI [4] of 34 µM, a TGI [5] of 34.3 µM and a TGI [6] of 31.7 µM. It also gave a TGI [8] of 26.1 µM and a TGI [9] of 28.5 µM.

`Nc1c(C(=O)Nc2cccc([N+](=O)[O-])c2)sc2nc3c(cc12)C(O)CCC3` (stereo not drawn) gave a GI50 [10] of 7.76 µM, a TGI [10] of 57.3 µM and a GI50 [3] of 3.5 µM. The TGI [3] was > 100 µM, the GI50 [4] was 29.6 µM and the TGI [4] was > 100 µM. For the same molecule, the GI50 [5] was > 36.2 µM, the TGI [5] was > 100 µM and the GI50 [6] was 16.9 µM. The TGI [6] was > 100 µM, the GI50 [7] was 3.59 µM and the TGI [7] was > 100 µM. The GI50 [8] was 6.3 µM, the TGI [8] was > 72.4 µM and the GI50 [9] was > 100 µM. For the same molecule, the TGI [9] was > 100 µM.

In the case of `CNC(=O)OCc1nc(SC2CCCCO2)n(C)c1COC(=O)NC` (stereo not drawn), the TGI [1] was > 100 µM, the TGI [2] was > 100 µM and the TGI [3] was > 100 µM. For the same molecule, the TGI [4] was > 100 µM, the TGI [5] was > 100 µM and the TGI [6] was > 100 µM. For the same molecule, the TGI [7] was > 100 µM, the TGI [8] was > 100 µM and the TGI [9] was > 100 µM.

For `CN(C)/C=C/c1nnc([N+](=O)[O-])s1`, the TGI [10] was 34.7 µM, the TGI [3] was 29.6 µM and the TGI [4] was 41.9 µM. It also gave a TGI [7] of 24.3 µM, a TGI [8] of 51.8 µM and a TGI [9] of 29.7 µM.

`COc1cccc(NC(=O)CC(=O)N2N=C(N(CCC#N)c3ccc(Cl)cc3)CC2c2ccccc2)c1` (stereo not drawn) was tested, and the TGI [1] was > 100 µM, the TGI [2] was > 100 µM and the TGI [3] was > 100 µM. For the same molecule, the TGI [4] was > 100 µM, the TGI [5] was > 100 µM and the TGI [6] was > 100 µM. For the same molecule, the TGI [7] was > 100 µM, the TGI [8] was > 100 µM and the TGI [9] was > 100 µM.

For `COC(=O)[C@H](Cc1cn(C)cn1)NC(=O)[C@H](Cc1c[nH]c2ccccc12)NC(=O)Nc1cc(C(F)(F)F)cc(C(F)(F)F)c1`, the GI50 [10] was > 10 µM, the TGI [10] was > 10 µM and the GI50 [1] was > 10 µM. The TGI [1] was > 10 µM, the GI50 [3] was > 10 µM and the TGI [3] was > 10 µM. For the same molecule, the GI50 [4] was > 10 µM, the TGI [4] was > 10 µM and the GI50 [5] was > 10 µM. For the same molecule, the TGI [5] was > 10 µM, the GI50 [6] was > 10 µM and the TGI [6] was > 10 µM. For the same molecule, the GI50 [7] was > 10 µM, the TGI [7] was > 10 µM and the GI50 [8] was > 10 µM. For the same molecule, the TGI [8] was > 10 µM, the GI50 [9] was > 10 µM and the TGI [9] was > 10 µM.

In the case of `CC(=O)NNc1nc(C)c(C(=O)NNC(=O)C(=O)Nc2ccccc2C#N)s1`, the TGI [1] was > 100 µM, the TGI [2] was > 100 µM and the TGI [3] was > 100 µM. The TGI [4] was > 100 µM, the TGI [5] was > 100 µM and the TGI [6] was > 100 µM. For the same molecule, the TGI [7] was > 100 µM, the TGI [8] was > 100 µM and the TGI [9] was > 100 µM.

`COc1cc2c(cc1OC)C(N(C)C)C(c1ccccc1)=C2Cl` (stereo not drawn) was tested, and the TGI [1] was > 100 µM, the TGI [3] was 57.9 µM and the TGI [4] was 56.4 µM. It also gave a TGI [5] of 65 µM, a TGI [6] of 36 µM and a TGI [8] of 30.3 µM. The TGI [9] was 32 µM.

`NC(=S)N/N=C(/CC(=O)c1ccccc1)C(=O)Nc1ccc(Cl)c(Cl)c1` was tested, and the TGI [1] was 91.6 µM, the TGI [2] was > 100 µM and the TGI [3] was > 100 µM. For the same molecule, the TGI [4] was > 100 µM, the TGI [5] was > 100 µM and the TGI [6] was > 100 µM. The TGI [7] was > 100 µM, the TGI [8] was > 100 µM and the TGI [9] was > 100 µM.

With `Cc1ccc(C(=O)O/N=C2/CCC/C2=C\c2ccccc2)cc1` the TGI [1] was > 100 µM, the TGI [2] was > 100 µM and the TGI [3] was > 100 µM. For the same molecule, the TGI [4] was > 100 µM, the TGI [5] was > 100 µM and the TGI [6] was > 100 µM. The TGI [7] was > 100 µM, the TGI [8] was > 100 µM and the TGI [9] was > 100 µM.
